The nature of data set [1]: Solution stability measured indirectly by MIC studies. The data set is classed as physicochemical. The conditions noted are these: stored up to 8 months at 2-8° C.; 25 mg/L inhibitor; P. aeruginosa VIM-2 and K. pneumonia NDM-1. From the text: P. aeruginosa harboring VIM-2 and K. pneumonia bearing NDM-1 was used as two indicator strains.
In data set [2] the test system is resistant gram-negative MBL-based bacteria. Description: MICx: lowest adjuvant concentration giving carbapenem MIC ≤2 mg/L. The conditions noted are these: 25 mg/L Example 26; K66-45 and K34-7; meropenem and doripenem. The data set is classed as cell-based.
Data set [3] concerns human serum albumin and α1-acid glycoprotein (AGP). The settings on record: 500 μM Example 26; HSA:AGP 24:1 up to 140 μM.
Experimental: Enzymes in the kit are immobilized at a solid phase. […] Buffer without inhibitor was included as a control. After incubation, the suspensions were centrifuged and diluted 1:10 in 50 mM HEPES buffer pH 7.5 supplemented with 1 μM zinc^2+ and VIM-2 (final concentration 1 nM).
Data set [4] deals with resistant clinical isolate of Klebsiella pneumoniae harboring NDM-1. Kind of data set: Time-kill study with meropenem. The data set is classed as cell-based. As for the experimental part:
Mueller-Hinton broth (MHB) was warmed from fridge temperature cold. […] A sample of Example 26 was dissolved in DMSO.
The 96-well plates were prepared using a multi-channel pipette, adding […] PBS to columns 2-9, or the required number of dilutions needed in the experiment. Each Inoculum was prepared by picking a single colony from the fresh plate that was disperged into 1 mL MHB, the loop was agitated to ensure all the colony comes off the loop. The tube was Vortex mixed, and a 100 μL aliquot was taken from the tube into 9.9 mL of MHB into the media bottle. […] The procedure was repeated for as many samples needed in the study. Aliquots of 5 mL inoculum were transferred to as many media bottles as needed, e.g. 4 mg/L MEM, 4 mg/L MEM+50 μM test substance, 4 mg/L MEM+100 μM test substance. Then […] aliquots were taken from each culture and added to Column 1 on the 96 well plate, e.g. culture 1: 50 μl into A1, […] into B1 etc. for time point 0 h. Then […] MEM was added into each bottle, followed by the required amount of test substance. The bottles were mixed gently to avoid formation of bubbles, and incubated in a secondary container at 37° C. at 180 rpm. Finally, serial dilutions were performed using multi-channel pipette taking 30 μL for column 1, adding to column 2, mixing well, repeating from column 2 to 3 with clean pipette tips.

Data set [5] deals with P. stuartii harboring an MBL. Kind of data set: MIC of meropenem on strains harboring an MBL (Example 198). The class given is cell-based. The settings on record: P. stuartii (NDM).
The target of a further data set is VIM-2 (Escherichia coli, UniProt Q5U7L7). The data set is classed as biochemical. As for the experimental part:
The eluent used was Chelex-treated HEPES 50 mM buffer, pH 7.5. […] In all experiments, 16 aliquots of 250 μL were taken from the PD-10 column runsout and enzyme activity was analysed. Enzyme activity was measured by adding Nitrocefin as a reporter substrate (final concentration of 50 μM).
To investigate if more extreme time-dependent and concentration-dependent conditions could restore enzyme activity, aliquots having final concentrations of 30 nM column-treated enzyme and 1000 μM Zn^2+ on ice and at room temperature over prolonged time.

For data set [6], the system named is Klebsiella pneumoniae strain 50752501 harbouring NDM-1. Kind of data set: In vivo infection study in neutropenic mice. Also noted: species or system Klebsiella pneumoniae; host NMRI mice. The settings on record: for Score at sampling: sampling T = 5 h. How it is done: The purpose of this study was to investigate the synergy between a typical example of the present invention and a state of art carbapenem in a clinically relevant multiresistant Gram-negative bacterial strain harboring a metallo-β-lactamase in the treatment of live mice infected with the bacterial strain.
The mice were rendered neutropenic by injecting 0.5 ml cyclophosphamide solution intraperitoneally 4 days (approximately 200 mg/kg) and 1 day (approximately 100 mg/kg) prior to inoculation.
Fresh overnight colonies from a 5% Horse Blood Agar plate were suspended and diluted in sterile saline to approximately and 10^7 CFU/ml. Mice were inoculated intraperitoneally with 0.5 ml of the suspension. Approximately ½ hr prior to inoculation, mice were treated orally with 45 μl neurophen (20 mg ibuprofen/ml corresponding to approximately 30 mg/kg) as a pain relief.
Mice were treated subcutaneously in the neck region with.
Colony counts were determined from blood and peritoneal fluid at 1 and 5 hrs post inoculation. […] The mice were sacrificed immediately after blood sampling and a total of 2 ml sterile saline was injected i.p. and the abdomen gently massaged before it was opened and fluid sampled with a pipette. Each sample was then 10 fold serial diluted in saline and 20-μl spots, ranging from undiluted to a 10^6 dilution, were applied on agar plates in duplicates. […] All agar plates were incubated 18-22 hrs at 35° C. in ambient air.

In data set [7] the test system is meropenem-resistant E. coli. Description: Checkerboard MIC assay of Example 26 and meropenem. The data set is classed as cell-based. The conditions noted are these: for some of the E. coli / K. pneumonia strains. How it is done:
A checkerboard MIC assay was using the broth dilution method according to CLSI guidelines. […] Dilutions to 4 mg/ml was performed by adding+4.75 ml sterile saline to 0.25 ml of the stock solution, and dilutions to 512 μg/ml was performed by adding 10.9 ml MH-broth to the 4 mg/ml solution. Inoculums of bacterial strains as described in Table 4 were prepared by suspending fresh overnight colonies from 5% horse blood agar were to a turbidity of 0.5 McFarland and further diluted to 1×10^6 CFU/ml in MH-broth. Aliquots of 50 μl of MH-broth were added to each well of polystyrene microtiter plates. […] The plates were incubated at 35° C., 16-20 hours.

In data set [8] the test system is strains producing Klebsiella pneumoniae carbapenemases (KPC). Description: Adjuvant activity with a carbapenem against KPC producers. The class given is cell-based. The settings on record: adjuvant together with a carbapenem.
Data set [9] has as its system K. pneumoniae K66-45 (NDM-1). Description: Microbroth dilution MIC of carbapenem with/without inhibitor. The class given is cell-based. The conditions noted are these: for MIC Value in K66-45 (MIC of carbapenem): K. pneumoniae NDM-1. How it is done: (§1) • Plate bacterial strain(s) on appropriate media: • Gram-negative bacteria with ESBLs or carbapenemases: green agar plates with 100 mg/L ampicillin • Gram-negative bacteria without β-lactamases: green agar plates • Gram-positive bacteria (Staphylococci and Enterococci): blood agar plates • Incubate o.n. at 37° C.
(§2) (Should be used within 15 min of preparation). • Dilute the 0.5 McFarland suspension 1:100 into MH broth. […] Plate 10 μl of the dilution on MH agar plates (×2). Incubate o.n. at 37° C., count the colonies and calculate the final CFU/ml inoculum in the plate by multiplying the average number of colonies with 10000 and divide by 2. The final inoculum should be between 3-7×10^5 CFU/ml. • Add 50 μl of the prepared bacterial suspension to each well in the microtiter plate except negative growth control.
(§3) • Calculate the desired concentration-range and volume of the compounds/antibiotics in the assay. […] Dilute the stock solution in MH broth. Make subsequent 2-fold dilutions in MH broth of the desired concentrations if a concentration range is to be tested (remember the extra dilution factor in the assay plate). Always include extra volume for pipetting. Take into consideration stock solutions that are made in buffers that have an effect on bacterial growth (e.g. DMSO).

For the next data set, the target named is rH glyoxylase II (Homo sapiens, UniProt Q16775). Kind of data set: Interaction with zinc-containing human enzyme. The data set is classed as biochemical. The settings on record: 62.5-500 μM, 30 min, 25° C., 0.4 ng/μL enzyme. How it is done: The initial reaction velocity was measured at 405 nm. EDTA was included as a representative example of the APC chelator class described above.

In data set [10] the test system is P. aeruginosa K34-7 (VIM-2). Description: Microbroth dilution MIC of carbapenem with/without inhibitor. The class given is cell-based. How it is done:
as §1, §2, §3
(Dilution methods test growth across graded concentrations, often in twofold steps.)

Data set [11] deals with K. pneumoniae harboring an MBL. Description: MIC of meropenem on strains harboring an MBL (Example 198). The class given is cell-based. The conditions noted are these: K. pneumoniae (NDM); each table line a different strain.
Another data set has as its system K. pneumoniae K66-45. The data set is classed as cell-based. The settings on record: inhibitor 25 mg/L. How it is done:
After plating and grown overnight at 37° C., only single colonies, ignoring any touching the edges of the plate, were counted.
10^9 CFU K66-45 (Mueller-Hinton broth, no selection) was plated and grown overnight, 37° C. Only single colonies, ignoring any touching the edges of the plate, were counted.

Data set [12] relates to C. freundii harboring an MBL. Description: MIC of meropenem on strains harboring an MBL (Example 198). The data set is classed as cell-based. The settings on record: C. freundii (NDM).

Several values for one entry are separate records, joined by “and”; a condition that tells them apart may be missing. Equal entries are not always repeated. Entries after “also recorded” stand apart in the source; their conditions may differ. Structures can show the parent of a compound that is named as a salt. Where two headings read alike, the source gives them in different places.

For the compound `CN(C[C@H](O)[C@@H](O)[C@H](O)[C@H](O)CO)C(=O)c1ccc(CN(Cc2ccccn2)Cc2ccccn2)nc1` [Example 26, 6-((bis(pyridin-2-ylmethyl)amino)methyl)-N-methyl-N-((2S,3R,4R,5R)-2,3,4,5,6-pentahydroxyhexyl)nicotinamide], in [1], the “solution stability (adjuvant activity in MIC studies after storage)” value is “no loss of activity even after 8 months storage time”. For the same compound, the “potentiates carbapenems with a factor” value in data set [2] was 32-256 times. Also, in [3], the “effect of protein binding on inhibitory activity on VIM-2” value is “protein binding is not affecting the inhibitory activity”. The “time after which CFU drops to below the limit of detection (LOD)” value in [4] (Example 26 + 4 mg/L meropenem, irrespective of Example 26 concentration, stays below LOD for 30 hrs) lay in the range of 5 to 10 h. Moreover, in data set [5], the “MIC meropenem + 25 mg/L Example 26 / Example 195” value is 0.25 µg/mL. Also, the “enzyme activity restored by ZnSO4” value at VIM-2 (15 nM impaired VIM-2 from Example 207C spiked with 0-100 μM ZnSO4) was 40%. The “irreversibility of VIM-2 inhibition” value on VIM-2 (purified VIM-2, PD-10 column, EDTA at 100 μM) is listed as “irreversibly inhibits VIM-2; also recorded: irreversibly inhibited”. The “reduction of the CFU levels compared to vehicle treatment” value in data set [6] (10-100 mg/kg Example 26 alone, blood and peritoneal fluid) was “did not result in reduction of the CFU levels”. In addition, the Score at sampling in [6] (Example 26 10 mg/kg s.c. + meropenem 33 mg/kg, mice 5-8) is 2; in data set [6] (Example 26 10 mg/kg s.c. + vehicle, mice 17-20), 2; in data set [6] (Example 26 33 mg/kg s.c. + meropenem 33 mg/kg, mice 9-12), 1; in [6] (Example 26 33 mg/kg s.c. + vehicle, mice 21-24) it was 1; in data set [6] (Example 26 100 mg/kg s.c. + meropenem 33 mg/kg, mice 13-16), 1; in data set [6] (Example 26 100 mg/kg s.c. + vehicle, mice 25-28), 1. The “lower CFU levels compared to vehicle treatment” value is on record as 3.95-4.38 log10 in [6] (combination Example 26 (10-100 mg/kg) and meropenem 33 mg/kg, blood); 3.57-3.66 log10 in [6] (combination Example 26 (10-100 mg/kg) and meropenem 33 mg/kg, peritoneal fluid). Also, the “amplification of the effect of meropenem” value in data set [7] was over 1000 times. Further, the “activity against KPC-producing strains” value in [8] is “does not show activity”. Besides, the “MIC Value in K66-45 (MIC of carbapenem)” value is 0.25 µg/mL and 0.125 µg/mL in [9] (doripenem (DOR) + 25 mg/L Example 26, batches 1-3); 0.125 µg/mL and 0.25 µg/mL in [9] (meropenem (MEM) + 25 mg/L Example 26, batches 1-3). The “interaction with rH glyoxylase II” value at rH glyoxylase II is “does not interact with rH glyoxylase II”.

In general, MIC refers to the lowest concentration found to suppress growth. Turning to `C[C@@H](O)[C@H]1C(=O)N2C(C(=O)O)=C(S[C@@H]3CN[C@H](C(=O)N(C)C)C3)[C@H](C)[C@H]12` [meropenem, reference compound], the “time after which CFU starts to increase” value in data set [4] (4 mg/L meropenem alone, grows beyond starting CFU count) is “about 5 hours”. The “lower CFU levels compared to vehicle treatment” value came out at 2.5 log10 in data set [6] (meropenem alone 33 mg/kg, blood) and 2.2 log10 in data set [6] (meropenem alone 33 mg/kg, peritoneal fluid). The MIC in [9] (Klebsiella pneumoniae, read-out: MIC of MEM in the absence of Example 26, K. pneumoniae K66-45) is over 32 µg/mL. The “MIC Value in K66-45 (MIC of carbapenem)” value in data set [9] (carbapenem alone) fell in the range of 32 to 64 µg/mL. In addition, the “MIC value in K34-7 (MIC of carbapenem)” value in [10] (carbapenem alone, P. aeruginosa VIM-2) is 32 to 64 µg/mL.

In the case of `C[C@@H](N)C(=O)N[C@H](C)C(=O)NCCc1ccc(NC(=O)c2ccc(CN(Cc3ccccn3)Cc3ccccn3)nc2)cc1` [Example 195, N-(4-(2-((R)-2-((R)-2-aminopropanamido)propanamido)ethyl)phenyl)-6-((bis(pyridin-2-ylmethyl)amino)methyl)nicotinamide hydrochloride, reference compound], in [1], the “solution stability (adjuvant activity in MIC studies after storage)” value was “a loss of activity was observed after 5 months storage, and after 8 months the activity was absent”. For the same compound, the “MIC meropenem + 25 mg/L Example 26 / Example 195” value in data set [5] stood at 0.25 µg/mL; in [11], 0.06 µg/mL; in [12], 0.06 µg/mL. The “RF - no of colonies” value with K. pneumoniae K66-45 (MEM 2 mg/L), in the data set on K. pneumoniae K66-45 (MEM 4 mg/L) and in the data set on K. pneumoniae K66-45 (MEM 8 mg/L) was “nc (n.c. = no colonies)” throughout.

In the case of `OC1O[C@H](Cn2cc(CN(CCN(Cc3ccccn3)Cc3ccccn3)Cc3ccccn3)nn2)[C@H](O)[C@H](O)[C@H]1O` (some centres unmarked) [Example 91], in data set [10] (P. aeruginosa K34-7 (VIM-2), inhibitor 50 μM), the MIC of meropenem turned out to be 1.

Values taken from patent US20210221791A1, “COMPOUNDS” (UNIVERSITETET I OSLO, priority 2016, published 2021).
